In patent US11629143B2, “HipK4 inhibitors and uses thereof” (Vibliome Therapeutics, LLC, priority 2020, dated 2023):

Columns and labels:
Assay in all cases: Kinase panel (mobility shift)
Format in all cases: biochemical
AXL = molecular target: T1, AXL (Homo sapiens, UniProt P30530)
T1 sequence (P30530 26-894): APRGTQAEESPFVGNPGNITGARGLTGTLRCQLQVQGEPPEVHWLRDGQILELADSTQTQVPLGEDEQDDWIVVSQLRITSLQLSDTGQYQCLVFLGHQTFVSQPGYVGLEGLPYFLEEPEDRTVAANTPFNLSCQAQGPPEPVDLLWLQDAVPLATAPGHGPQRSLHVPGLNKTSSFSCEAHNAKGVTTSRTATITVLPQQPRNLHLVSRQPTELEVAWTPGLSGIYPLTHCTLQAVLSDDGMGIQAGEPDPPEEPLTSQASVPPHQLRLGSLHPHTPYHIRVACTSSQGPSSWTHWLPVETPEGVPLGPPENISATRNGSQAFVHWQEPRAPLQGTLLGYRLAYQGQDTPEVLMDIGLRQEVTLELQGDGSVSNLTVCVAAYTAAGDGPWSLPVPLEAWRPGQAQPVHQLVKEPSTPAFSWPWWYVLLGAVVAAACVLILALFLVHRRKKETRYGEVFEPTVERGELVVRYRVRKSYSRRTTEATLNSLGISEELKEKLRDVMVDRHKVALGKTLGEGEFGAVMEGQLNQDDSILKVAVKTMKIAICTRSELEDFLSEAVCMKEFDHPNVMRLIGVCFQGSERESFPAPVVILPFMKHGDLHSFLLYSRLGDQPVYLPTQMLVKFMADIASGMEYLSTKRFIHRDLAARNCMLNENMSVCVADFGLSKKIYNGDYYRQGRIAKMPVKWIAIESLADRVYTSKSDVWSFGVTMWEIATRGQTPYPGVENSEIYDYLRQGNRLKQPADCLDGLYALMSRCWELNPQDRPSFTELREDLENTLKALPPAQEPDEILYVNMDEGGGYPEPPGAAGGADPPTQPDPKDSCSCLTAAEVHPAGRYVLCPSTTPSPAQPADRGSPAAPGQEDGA
Procedure, shortened: (§1)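 Microfluidic mobility-shift readout: product and substrate peaks are resolved by charge, and their fluorescence is compared to give enzyme activity. Enzyme, fluorescent substrate and test compound are reacted, then terminated before chip loading. Values are binned at 5 um: A 95% or greater, B 90%-94%, C 80%-89%.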

EPH-A6 = molecular target: T2, EPH-A6 (Homo sapiens, UniProt Q9UF33)
T2 sequence (Q9UF33 23-1036): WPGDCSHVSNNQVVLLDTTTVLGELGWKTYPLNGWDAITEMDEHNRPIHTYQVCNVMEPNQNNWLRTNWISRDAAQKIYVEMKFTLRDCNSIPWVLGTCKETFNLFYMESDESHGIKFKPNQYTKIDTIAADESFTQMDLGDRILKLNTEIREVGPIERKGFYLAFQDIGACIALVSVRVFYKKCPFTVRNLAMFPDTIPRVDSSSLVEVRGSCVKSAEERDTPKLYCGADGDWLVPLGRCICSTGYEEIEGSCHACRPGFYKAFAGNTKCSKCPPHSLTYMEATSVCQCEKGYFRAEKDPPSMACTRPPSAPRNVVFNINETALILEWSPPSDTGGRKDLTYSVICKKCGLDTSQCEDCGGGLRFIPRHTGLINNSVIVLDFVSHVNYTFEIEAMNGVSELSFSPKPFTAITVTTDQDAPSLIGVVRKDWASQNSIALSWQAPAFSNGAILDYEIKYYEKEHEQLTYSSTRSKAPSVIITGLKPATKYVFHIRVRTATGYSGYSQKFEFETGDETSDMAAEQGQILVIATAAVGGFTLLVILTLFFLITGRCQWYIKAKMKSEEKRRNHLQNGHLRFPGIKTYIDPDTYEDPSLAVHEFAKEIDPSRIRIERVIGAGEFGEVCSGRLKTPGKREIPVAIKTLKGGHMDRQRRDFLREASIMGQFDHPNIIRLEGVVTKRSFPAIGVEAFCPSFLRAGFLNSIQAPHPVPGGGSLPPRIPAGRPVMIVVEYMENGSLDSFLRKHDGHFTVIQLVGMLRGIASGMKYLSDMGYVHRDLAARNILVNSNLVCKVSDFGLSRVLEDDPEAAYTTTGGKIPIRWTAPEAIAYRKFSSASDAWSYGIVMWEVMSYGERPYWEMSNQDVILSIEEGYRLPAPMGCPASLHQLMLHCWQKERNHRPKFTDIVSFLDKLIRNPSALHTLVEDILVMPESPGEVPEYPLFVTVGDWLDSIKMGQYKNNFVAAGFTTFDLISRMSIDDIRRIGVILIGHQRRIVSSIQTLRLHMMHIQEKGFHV
Procedure, shortened: as §1

TAOK3 = molecular target: T3, TAOK3 (Homo sapiens, UniProt Q9H2K8)
T3 sequence (Q9H2K8 1-898): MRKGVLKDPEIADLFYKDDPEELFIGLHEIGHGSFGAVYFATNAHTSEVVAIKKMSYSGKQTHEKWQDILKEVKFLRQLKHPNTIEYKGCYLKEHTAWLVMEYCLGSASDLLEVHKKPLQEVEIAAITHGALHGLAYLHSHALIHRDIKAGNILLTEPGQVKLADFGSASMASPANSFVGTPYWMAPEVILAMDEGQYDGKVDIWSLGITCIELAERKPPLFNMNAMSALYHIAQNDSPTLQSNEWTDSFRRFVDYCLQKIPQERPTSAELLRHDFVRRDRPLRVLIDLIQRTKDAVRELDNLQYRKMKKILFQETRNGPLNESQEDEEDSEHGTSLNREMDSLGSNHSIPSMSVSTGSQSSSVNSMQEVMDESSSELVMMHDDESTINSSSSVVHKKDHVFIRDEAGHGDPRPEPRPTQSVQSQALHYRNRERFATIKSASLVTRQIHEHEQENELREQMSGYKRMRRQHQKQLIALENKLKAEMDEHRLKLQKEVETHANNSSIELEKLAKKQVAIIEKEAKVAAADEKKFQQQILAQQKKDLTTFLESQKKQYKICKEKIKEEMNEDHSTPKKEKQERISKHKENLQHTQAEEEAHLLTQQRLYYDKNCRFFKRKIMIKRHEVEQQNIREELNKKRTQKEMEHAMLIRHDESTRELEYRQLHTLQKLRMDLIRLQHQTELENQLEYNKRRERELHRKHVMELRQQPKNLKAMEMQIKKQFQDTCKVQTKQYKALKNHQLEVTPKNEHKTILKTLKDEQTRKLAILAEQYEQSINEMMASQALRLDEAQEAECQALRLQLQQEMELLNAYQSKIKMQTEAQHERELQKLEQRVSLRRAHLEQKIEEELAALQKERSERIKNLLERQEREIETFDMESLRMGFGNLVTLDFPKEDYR
Procedure, shortened: as §1

SMILES | inhibition at 5 µM (AXL) [%] | inhibition at 5 µM (EPH-A6) [%] | inhibition at 5 µM (TAOK3) [%]
CSc1nc(C(=O)Nc2ccc(Oc3ccnc(C(=O)NC4COC4)c3)c(F)c2)c(-c2ccc(F)cc2)o1 [Compound 31] | < 50 | 80 to 89 | < 50
CSc1nc(C(=O)Nc2ccc(Oc3ccnc(C(=O)NC4CNC4)c3)c(F)c2)c(-c2ccc(F)s2)o1 [Compound 27] | < 50 | < 50 | < 50
COc1nc(C(=O)Nc2ccc(Oc3ccnc(C(=O)NC4COC4)c3)c(F)c2)c(-c2ccc(F)cc2)o1 [Compound 39] | < 50 | 80 to 89 | < 50
CSc1nc(C(=O)Nc2ccc(Oc3ccnc(-c4cnn(C)c4)c3)c(F)c2)c(-c2ccc(F)cc2)o1 [Compound 11] | 90 to 94 | ≥ 95 | < 50
CNC(=O)c1cc(Oc2ccc(NC(=O)c3nc(OC)oc3-c3ccc(F)c(F)c3)cc2F)ccn1 [Compound 24] | < 50 | 50 to 79 | < 50
CNC(=O)c1cc(Oc2ccc(NC(=O)c3nc(OCC(F)(F)F)oc3-c3ccc(F)cc3)cc2F)ccn1 [Compound 38] | 80 to 89 | 80 to 89 | < 50
CNC(=O)c1cc(Oc2ccc(NC(=O)c3nc(NC)sc3-c3ccc(F)cc3F)cc2F)ccn1 [Compound 21] | < 50 | 50 to 79 | 50 to 79
CNC(=O)c1cc(Oc2ccc(NC(=O)c3nc(SC)oc3-c3ccc(F)cc3F)cc2)ccn1 [Compound 6] | 80 to 89 | ≥ 95 | < 50
CNC(=O)c1cc(Oc2ccc(NC(=O)c3nc(NC)oc3-c3ccc(F)cc3)cc2F)ccn1 [Compound 14] | < 50 | 80 to 89 | 90 to 94
CNC(=O)c1cc(Oc2ccc(NC(=O)c3nc(OC)oc3-c3ccc(F)s3)cc2F)ccn1 [Compound 25] | < 50 | 50 to 79 | < 50
CSc1nc(C(=O)Nc2ccc(Oc3ccnc(C(=O)NCC(F)(F)F)c3)c(F)c2)c(-c2ccc(F)cc2)o1 [Compound 40] | < 50 | < 50 | < 50
CNC(=O)c1cc(Oc2ccc(NC(=O)c3nc(SC(C)C)oc3-c3ccc(F)cc3)cc2F)ccn1 [Compound 34] | 50 to 79 | 90 to 94 | 80 to 89
CSc1nc(C(=O)Nc2ccc(Oc3cc4cnn(C)c4cc3Br)c(F)c2)c(-c2ccc(F)cc2)o1 [Compound 2] | < 50 | 50 to 79 | < 50
CNC(=O)c1cc(Oc2ccc(NC(=O)c3nc(SC)oc3-c3ccc(F)s3)cc2F)ccn1 [Compound 16] | < 50 | 50 to 79 | < 50
CNC(=O)c1cc(Oc2ccc(NC(=O)c3nc(S(C)(=O)=O)sc3-c3ccc(F)cc3)cc2F)ccn1 [Compound 13] | 80 to 89 | ≥ 95 | < 50
CNC(=O)c1cc(Oc2ccc(NC(=O)c3nc(NC)sc3-c3ccc(F)cc3C)cc2F)ccn1 [Compound 23] | 50 to 79 | 80 to 89 | 50 to 79
CNC(=O)c1cc(Oc2c(F)cc(NC(=O)c3nc(NC)sc3-c3ccc(F)cc3)cc2F)ccn1 [Compound 19] | < 50 | 80 to 89 | 50 to 79
CNC(=O)c1cc(Oc2ccc(NC(=O)c3nc(OC4CC4)oc3-c3ccc(F)cc3)cc2F)ccn1 [Compound 32] | 80 to 89 | 90 to 94 | 50 to 79
CNC(=O)c1cc(Oc2ccc(NC(=O)c3nc(C4CC4)oc3-c3ccc(F)cc3)cc2F)ccn1 [Compound 26] | 50 to 79 | 90 to 94 | 80 to 89
CNC(=O)c1cc(Oc2ccc(NC(=O)c3nc(OC)oc3-c3ccc(F)cc3)cc2F)ccn1 [Compound 15] | 50 to 79 | 90 to 94 | < 50
